Data reported in patent US20160206583A1, “AMINO ACID TREATMENT OF SEIZURES” (THE JOHNS HOPKINS UNIVERSITY, priority 2013, published 2016).

Assays:
[1] = test system: kainic acid-induced seizures; test: Kainic acid status epilepticus test; type: in vivo, mice
Description: Male NIH Swiss mice (NCI, Frederick, Md., U.S.A.) aged 3-4 weeks were acclimatized to the animal care facility for 1-5 days and housed four per cage. All mice were fed unrestricted normal rodent chow (Teklad Global 2018SX, Madison, Wis., U.S.A.). Only in experiments lasting 2 weeks, mice were fasted overnight before the D-leucine was administered in drinking water.
[…] Louis, Mo., U.S.A.) or given D-leucine in drinking water (1.5% w/v) for 13 days after an initial overnight fast. […] Louis, Mo., U.S.A.).
Each mouse was tested for seizures only once. Personnel performing seizure testing and assessments were blinded to treatment group assignments. Seizure tests were performed 3 h following a single dose of D-leucine, 15-25 min after the administration of kainic acid, or after 13 days of D-leucine exposure in drinking water.
Kainic acid was injected intraperitoneally (22.5-25 mg kainic acid/kg mouse body mass, 5.3 mg/ml PBS, Tocris Bioscience, Ellisville, Mo., U.S.A.) as described previously (Hartman et al., 2012). Mice were observed continuously in plexiglass cages for the duration of the experiment. Seizure behaviors were scored for 2 h using a modified Racine scale (the highest score in a given 5-min block was used): 0, no seizure; 1, immobility; 2, forelimb and/or tail extension; 3, automatisms; 4, forelimb clonus, rearing, and/or falling; 5, repetition of stage 4; 6, tonic-clonic seizures; and 7, death (Hartman et al., 2010). As the mouse behaviors only occur intermittently, the highest seizure score achieved in a 5 min epoch was recorded.
Probit analyses (used in the 6 Hz test to determine the current where half the mice experienced any seizure behavior, or CC50, was performed using Minitab 16 (State College, Pa., U.S.A.). The level of significance in the 6 Hz test was 0.05. T-tests and one-way ANOVAs were performed using GraphPad Prism 4 (LaJolla, Calif., U.S.A.). In the kainic acid test, one-way ANOVAs were performed for multiple comparisons of 3 treatment groups. When 2 groups were compared in the kainic acid test, the level of significance was 0.01 (because 3-4 parameters were measured simultaneously, this represents a Bonferroni correction of a typical level of significance of 0.05).

[2] = test system: AMPA receptor; settings: hippocampal neurons; Gong et al., 2007; cited from earlier work
[3] = test system: 6 Hz-induced seizures; test: 6 Hz test; type: in vivo, mice; settings: D-leucine 1.5% w/v in drinking water for 13 days
Description: Male NIH Swiss mice (NCI, Frederick, Md., U.S.A.) aged 3-4 weeks were acclimatized to the animal care facility for 1-5 days and housed four per cage. All mice were fed unrestricted normal rodent chow (Teklad Global 2018SX, Madison, Wis., U.S.A.). Only in experiments lasting 2 weeks, mice were fasted overnight before the D-leucine was administered in drinking water. At 5 weeks of age, mice were injected intraperitoneally with D-leucine 3 mg/kg (“low dose”) or 300 mg/kg (“high dose”) body weight (Sigma-Aldrich, St. Louis, Mo., U.S.A.) or given D-leucine in drinking water (1.5% w/v) for 13 days after an initial overnight fast. […] Probit analyses (used in the 6 Hz test to determine the current where half the mice experienced any seizure behavior, or CC50, was performed using Minitab 16 (State College, Pa., U.S.A.). The level of significance in the 6 Hz test was 0.05. T-tests and one-way ANOVAs were performed using GraphPad Prism 4 (LaJolla, Calif., U.S.A.). In the kainic acid test, one-way ANOVAs were performed for multiple comparisons of 3 treatment groups. When 2 groups were compared in the kainic acid test, the level of significance was 0.01 (because 3-4 parameters were measured simultaneously, this represents a Bonferroni correction of a typical level of significance of 0.05).

[4] = test system: GAERS (Genetic Absence Epilepsy Rats from Strasbourg) Wistar rats; settings: intracerebroventricular or intrathalamic routes; Koerner et al., 1996; cited from earlier work
[5] = test system: maximal electroshock-induced seizures; settings: literature (Peterson, 1991; Kalinichev et al., 2010); cited from earlier work
[6] = test system: amygdala-kindled rats; settings: dose-dependent, Loscher et al., 1994; cited from earlier work
[7] = test system: pentylenetetrazol-induced seizures; settings: Dufour et al., 1999, cited from earlier work
[8] = test system: picrotoxin-induced seizures; settings: rats; Skeie et al., 1994; cited from earlier work
[9] = test system: hexafluorodiethyl ether seizures; settings: Gallagher, 1969; cited from earlier work
[10] = CBIO 10 mg/kg 15 min after kainic acid
[11] = pretreatment, CBIO 10 mg/kg three hours prior to kainic acid
[12] = D-leucine 300 mg/kg 15 min after kainic acid (after seizure onset)
[13] = pretreatment, D-leucine 3 mg/kg i.p. 3 h before kainic acid (23.5 mg/kg)
[14] = pretreatment, D-leucine 300 mg/kg i.p. 3 h before kainic acid (23.5 mg/kg)
[15] = D-serine 3 mg/kg 15 min after kainic acid
[16] = D-serine 300 mg/kg 15 min after kainic acid

## Oc1noc2ccc(Cl)cc12 [CBIO, 5-chloro-benzo[d]isoxazol-3-ol]
[1]; [10]
  maximum seizure score: no effect
  mean seizure score: decrease
  number of epochs with a seizure stage ≧2: decrease
[1]; [11]
  latency to seizure stage ≧2: no effect
  maximum seizure score: no effect
  mean seizure score: decreased
  number of epochs with a seizure stage ≧2: decreased

## CC(C)C[C@@H](N)C(=O)O [D-leucine]
[2]
  kainic acid-induced AMPA receptor-mediated current: inactive
[1]; D-leucine 3 mg/kg 15 min after the onset of seizures (FIGS. 4C-4D)
  protection against seizures induced by kainic acid: protects against seizures
[1]; D-leucine 3 mg/kg 20 min after kainic acid (25 mg/kg)
  seizure outcome compared with diazepam (10 mg/kg): not inferior to treatment with diazepam
[1]; [12]
  mean seizure score: no effect
  number of epochs with a seizure score ≧2: decreased
[1]; D-leucine 300 mg/kg 15 min after kainic acid (after seizure onset), trend noted
  maximum seizure score: no effect
[1]; pretreatment, D-leucine 0.3 mg/kg 3 h before kainic acid (23.5 mg/kg)
  protection against seizures: did not protect against seizures
[1]; [13]
  mean seizure score: decreased
  number of epochs with a seizure stage ≧2: decreased
[1]; pretreatment, D-leucine 0.3, 3 or 300 mg/kg vs water, 3 h before kainic acid
  maximum seizure score: no difference between groups
[1]; [14]
  latency to onset of seizure stage ≧2: prolonged
  mean seizure score: decreased
  number of epochs with a seizure stage ≧2: decreased
[3]
  CC50 (current where half of mice had a convulsion): increased

## N[C@H](CO)C(=O)O [D-serine]
[4]
  effect on spike wave discharges: no effect
[2]
  kainic acid-induced AMPA receptor-mediated current: inhibits
[1]; [15]
  maximum seizure score: decrease
  mean seizure score: decrease
  number of epochs with a seizure stage ≧2: decrease
[1]; [16]
  maximum seizure score: no effect
  mean seizure score: decrease
  number of epochs with a seizure stage ≧2: decrease
[5]
  protection against maximal electroshock-induced seizures: weak but statistically significant protection
[6]
  after discharge thresholds: increases

## CC(C)C[C@H](N)C(=O)O [L-leucine]
[7]; rats
  protection against pentylenetetrazol-induced seizures: protects
[8]
  protection against picrotoxin-induced seizures: protects
[9]
  protection against hexafluorodiethyl ether seizures: not

## CC(C)CC(=O)C(=O)O [α-ketoisocaproic acid]
[7]
  activity in the PTZ test: not active
